According to patent US10159655B2, “Agent for inhibiting odor of pyrazine derivatives” (Kao Corporation, priority 2012, dated 2018):

biological target: T1, olfactory receptor OR5K1 (Homo sapiens, UniProt Q8NHB7); assay: Antagonistic activity against OR5K1: inhibition of the receptor response to 2,6-dimethylpyrazine (luciferase assay, HEK293 cells); type: cell-based; conditions: 2,6-dimethylpyrazine 1 mM + test substance 300 μM, cytotoxic flavoring agents re-evaluated at 333 μM 2,6-dimethylpyrazine + 100 μM test substance, read-out: Inhibition rate (receptor response-inhibiting rate)
T1 construct: expressed in transfected cells; host or cells: HEK293
T1 sequence (Q8NHB7 1-308): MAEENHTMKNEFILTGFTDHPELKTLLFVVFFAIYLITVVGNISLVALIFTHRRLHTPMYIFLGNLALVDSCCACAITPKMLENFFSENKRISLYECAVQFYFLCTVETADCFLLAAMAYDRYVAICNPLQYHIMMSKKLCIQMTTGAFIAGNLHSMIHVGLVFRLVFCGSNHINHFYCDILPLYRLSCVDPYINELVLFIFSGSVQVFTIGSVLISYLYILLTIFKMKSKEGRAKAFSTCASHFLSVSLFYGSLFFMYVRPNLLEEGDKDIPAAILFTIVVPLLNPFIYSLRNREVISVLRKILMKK
Experimental: The receptor response-inhibiting rate of a test substance was calculated as follows. The receptor activity (X-Y) by stimulation with 2,6-dimethylpyrazine alone was determined by subtracting the luminescence value (Y) in cells to which the receptor was introduced but were not stimulated with 2,6-dimethylpyrazine from the luminescence value (X) derived from firefly luciferase induced by stimulation with 2,6-dimethylpyrazine alone. Similarly, the receptor activity (Z-Y) in the presence of a test substance was determined by subtracting the luminescence value (Y) in cells not stimulated with 2,6-dimethylpyrazine from the luminescence value (Z) stimulated with a mixture of 2,6-dimethylpyrazine and the test substance. The reduction rate of the receptor activity (Z-Y) in the presence of a test substance to the receptor activity (X-Y) by stimulation with 2,6-dimethylpyrazine alone was calculated by the following computation expression: Inhibition rate (%)={1−(Z−Y)/(X−Y)}×100, to determine the receptor response-inhibiting rate of the test substance. In the measurement, multiple independent experiments were performed in duplicate, and the average of each experiment was used.

Structure (SMILES) | inhibition at 300 µM [%]
CCOCOC1CCCCCCCCCCC1 [formaldehyde cyclododecyl ethyl acetal] | ≥ 50
O=C(OCCc1ccccc1)c1ccccc1O [phenylethyl salicylate] | ≥ 75
CC(=O)O[C@]1(C)CC[C@@]23C[C@@H]1C(C)(C)[C@@H]2CC[C@H]3C [cedryl acetate] | ≥ 50
CCCCCCOC(=O)c1ccccc1O [hexyl salicylate] | ≥ 40
CC(=O)c1cc(C(C)(C)C)cc2c1C=CC2(C)C [6-tert-butyl-1,1-dimethylinden-4-yl methyl ketone] | ≥ 40
CC(C=O)C1CCCCC1 (stereo not shown) [2-cyclohexylpropanal] | ≥ 50
CC(=O)C1=C(C)C2CC3(C1)C(C)CCC3C2(C)C (stereo not shown) [1-(2,3,4,7,8,8a-hexahydro-3,6,8,8-tetramethyl-1H-3a,7-methanoazulen-5-yl)-ethanone] | ≥ 50
CCC(O)COC1CCCCC1C(C)(C)C (stereo not shown) [1-(2-tert-butylcyclohexyloxy)-2-butanol] | ≥ 75
CCC(=CCC1CC=C(C)C1(C)C)CO (stereo not shown) [2-ethyl-4-(2,2,3-trimethyl-3-cyclopenten-1-yl)-2-buten-1-ol] | ≥ 75
CC(=O)c1cc2c(cc1C)C(C)(C)C(C)CC2(C)C (stereo not shown) [1-(5,6,7,8-tetrahydro-3,5,5,6,8,8-hexamethyl-2-naphthalenyl)-ethanone] | ≥ 75
CC(C)CCCC(C)CCO (stereo not shown) [3,7-dimethyl-1-octanol] | ≥ 50
CC(C)=CCCC(C)=CC=O [3,7-dimethyl-2,6-octadienal] | ≥ 75
CC(C=O)c1ccccc1 (stereo not shown) [2-phenylpropionaldehyde] | ≥ 50
C=CCc1ccc(O)c(OC)c1 [1-allyl-3-methoxy-4-hydroxybenzene] | ≥ 40
CC(C)[C@H]1CC[C@@H](CO)CC1 [cis-4-isopropylcyclohexylmethanol] | ≥ 40
CC(C)=CCCC(C)CCOCC=O (stereo not shown) [6,10-dimethyl-3-oxa-9-undecenal] | ≥ 40
CC(C=O)Cc1ccc(C(C)(C)C)cc1 (stereo not drawn) [α-methyl-β-(p-tert-butylphenyl)-propionaldehyde] | ≥ 50

Structure (SMILES) | inhibition at 300 µM [%]
CC(C)=CCCC(C)CC=O (stereo not shown) [3,7-dimethyl-6-octenal] | ≥ 50
CC(=O)C1(C)CC2=C(CCCC2(C)C)CC1C (stereo not shown) [7-acetyl-1,2,3,4,5,6,7,8-octahydro-1,1,6,7-tetramethyl-naphthalene] | ≥ 75
CC=Cc1ccc(OCc2ccccc2)c(OC)c1 [2-methoxy-1-(phenylmethoxy)-4-(1-propenyl)-benzene] | ≥ 50
CC1(C)CCCC2(C)C1CCC1(C)OCCC12 (stereo not shown) [dodecahydro-3a,6,6,9a-tetramethylnaphtho[2,1-b]furan] | ≥ 50
CC(C=O)Cc1ccc(C(C)C)cc1 (stereo not drawn) [α-methyl-4-(1-methylethyl)-benzenepropanal] | ≥ 75
Cc1ccc(C(C)C)c(O)c1 [5-methyl-2-(1-methylethyl)-phenol] | ≥ 75
O=C1CCCCCCCCCCCC(=O)OCCO1 [1,4-dioxacycloheptadecane-5,17-dione] | ≥ 40
CCC=C(C)C(O)CCCCC (stereo not shown) [4-methyl-3-decen-5-ol] | ≥ 75
CCCCCC1=C(C)CCC1=O [2-pentyl-3-methyl-2-cyclopenten-1-one] | ≥ 40
C=C(OCC)C1C(C)(C)CC(=O)CC1(C)C [4-(1-ethoxyvinyl)-3,3,5,5-tetramethylcyclohexanone] | ≥ 50
CC(C)=CCC/C(C)=C/CO [(E)-3,7-dimethyl-2,6-octadien-1-ol] | ≥ 40
C=CCCC(=O)C1=CCCC(C)(C)C1 [1-(5,5-dimethyl-1-cyclohexen-1-yl)-4-penten-1-one] | ≥ 40
CC(=O)c1c(C)c([N+](=O)[O-])c(C(C)(C)C)c([N+](=O)[O-])c1C [4-tert-butyl-2,6-dimethyl-3,5-dinitroacetophenone] | ≥ 40
O=CC=Cc1ccccc1 [cinnamaldehyde] | ≥ 50
CC(=CCC1CC=C(C)C1(C)C)CO (stereo not shown) [2-methyl-4-(2,2,3-trimethyl-3-cyclopenten-1-yl)-2-buten-1-ol] | ≥ 50
CC=CC(=O)C1=C(C)C=CCC1(C)C [1-(2,6,6-trimethyl-1,3-cyclohexadien-1-yl)-2-buten-1-one] | ≥ 40

tested on: not listed separately; assay: Sensory test of ability to reduce the odor of 2,6-dimethylpyrazine on cloth; type: in vivo; conditions: 0.5 μL flavoring agent on 0.5 g cloth containing 1% 2,6-dimethylpyrazine; four panelists; FIG. 3
Experimental: The abilities to reduce an odor of a pyrazine derivative by the antagonist substances identified in Example 3 were confirmed by a sensory test.
A flavoring agent (0.5 μL) was added to cloth (0.5 g) containing 2,6-dimethylpyrazine (1%), and the odor thereof was evaluated by comparing the strength of odor of 2,6-dimethylpyrazine of the cloth not applied with flavor by the flavoring agent. The sensory evaluation test was performed by four panelists. In the evaluation, a case where a strong odor of 2,6-dimethylpyrazine was smelled was rated as 1, and a case where the odor of 2,6-dimethylpyrazine was not smelled at all was rated as 5.

Structure (SMILES) | odor of 2,6-dimethylpyrazine inhibited (sensory evaluation, rating 1 strong odor to 5 not smelled)
CC(=O)c1ccc2ccccc2c1 [β-methyl naphthyl ketone] | inhibited
CC(=O)/C(C)=C/C1C(C)=CCCC1(C)C (stereo not drawn) [α-isomethyl ionone] | inhibited
CCOC(=O)[C@]12CCC[C@H]1[C@@H]1CC[C@H]2C1 [ethyl-(3aα,4α,7α,3aα)-octahydro-4,7-methano-3aH-indene-3a-carboxylate] | inhibited
CCC(O)COC1CCCCC1C(C)(C)C (stereo not shown) [1-(2-tert-butylcyclohexyloxy)-2-butanol] | inhibited
CC(=O)C=CC1=C(C)CCCC1(C)C [4-(2,6,6-trimethyl-1-cyclohexen-1-yl)-3-buten-2-one] | inhibited
CCCCCCC(C=O)=Cc1ccccc1 [α-hexylcinnamic aldehyde] | inhibited
CC(C=O)Cc1ccc(C(C)(C)C)cc1 (stereo not drawn) [α-methyl-β-(p-tert-butylphenyl)-propionaldehyde] | inhibited
CC(C=O)Cc1ccc2c(c1)OCO2 (stereo not drawn) [α-methyl-3,4-methylenedioxyhydrocinnamic aldehyde] | inhibited
CC1=CC(C)C(C=O)CC1 (stereo not shown) [2,4-dimethyl-3-cyclohexene-1-carboxyaldehyde] | inhibited
CC1C/C=C/CCCCCCCCCC(=O)C1 (stereo not shown) [(5E)-3-methylcyclopenta-5-decen-1-one] | inhibited
CCC=C(C)C(O)CCCCC (stereo not shown) [4-methyl-3-decen-5-ol] | inhibited
CC(C)=CCC/C(C)=C/CO [(E)-3,7-dimethyl-2,6-octadien-1-ol] | inhibited
C=CCCC(=O)C1=CCCC(C)(C)C1 [1-(5,5-dimethyl-1-cyclohexen-1-yl)-4-penten-1-one] | inhibited
CCCCCCCC1CCC(=O)O1 (stereo not shown) [γ-undecalactone] | inhibited
CC(=CCC1CC=C(C)C1(C)C)CO (stereo not shown) [2-methyl-4-(2,2,3-trimethyl-3-cyclopenten-1-yl)-2-buten-1-ol] | inhibited
CC=CC(=O)C1=C(C)C=CCC1(C)C [1-(2,6,6-trimethyl-1,3-cyclohexadien-1-yl)-2-buten-1-one] | inhibited
